Experimental data reported in article PMC10485887, “PET Evaluation of the Novel F-18 Labeled Reversible Radioligand [^18F]GEH200449 for Detection of Monoamine Oxidase-B in the Non-Human Primate Brain” (ACS Chemical Neuroscience, 2023).
Read-outs that look alike come from different tables or passages of the source.

Tested on: MAO-B
Assay type: in vivo, Macaca fascicularis
Conditions: baseline
Experimental: At start of PET data acquisition, a sterile physiological phosphate buffer solution (pH = 7.4) of [^18F]GEH200449 (injected radioactivity, 107–167 MBq) was injected as a bolus into a sural vein. Emission data were acquired in list mode for 123 min. Arterial blood was sampled as previously described[28] using an automated blood sampling system (ABSS) during the first 3 min of each PET measurement. Subsequently, arterial blood samples (0.7–2.5 mL) were manually drawn at 7, 15, 30, 60, 90, and 120 min after injection of [^18F]GEH200449. After centrifugation, 0.15–1.0 mL of plasma was pipetted and plasma radioactivity was measured in a well counter. In addition, samples were taken directly from the ABSS at 0.5, 1, 1.5, 2, 2.5, and 3 min for cross-calibration with the well counter and for the determination of the plasma-to-blood ratio.
Dynamic images were reconstructed as previously described.[30],[31] Regions of interest (ROIs) for the whole brain and selected regions (caudate nucleus, putamen, thalamus, occipital cortex, prefrontal cortex, and cerebellum) were manually delineated on T1-weighted magnetic resonance images (MRIs) acquired as previously described.[21],[27] PET images were coregistered to the MRIs, and time-activity curves were generated by pooling ROIs for each paired anatomical region and applying the pooled ROIs to the coregistered PET images. Delineation of ROIs and image coregistrations were performed using the software PMOD v. 3.6 (PMOD Technologies, Zurich, Switzerland).
Time curves for regional [^18F]GEH200449 binding at baseline were analyzed by kinetic modeling using 1-TC and 2-TC models,[32] and VT as outcome measures. Akaike information criterion[33] and F statistics were applied to select the preferred model. Regional estimates of VT for [^18F]GEH200449 were also obtained using the Logan linear graphical method[34] with t* fixed at 40 min. The analyses were performed using the kinetic modeling tool in PMOD v. 4.3. Occupancy at [^18F]GEH200449 binding sites was estimated based on regional VT values obtained by the Logan method at baseline and after drug administration according to a graphical procedure described in the literature.[22]

Q: Which results are given for O=c1ccoc2ccc(OCc3ccc([18F])nc3)cc12 [[^18F]GEH200449]?
A: 2-TC parameter estimate K1 (NHP #1, CAU): 0.70 mL min-1 cm-3; 2-TC parameter estimate VT (NHP #1, CAU): 14.6 mL cm-3; 2-TC parameter estimate k2 (NHP #1, CAU): 0.09 min⁻¹; 2-TC parameter estimate k3 (NHP #1, CAU): 0.034 min⁻¹; 2-TC parameter estimate k4 (NHP #1, CAU): 0.037 min⁻¹; 2-TC parameter estimate K1 (NHP #1, CER): 0.47 mL min-1 cm-3; 2-TC parameter estimate VT (NHP #1, CER): 11.1 mL cm-3; 2-TC parameter estimate k2 (NHP #1, CER): 0.07 min⁻¹; 2-TC parameter estimate k3 (NHP #1, CER): 0.021 min⁻¹; 2-TC parameter estimate k4 (NHP #1, CER): 0.038 min⁻¹; 2-TC parameter estimate K1 (NHP #1, OC): 0.49 mL min-1 cm-3; 2-TC parameter estimate VT (NHP #1, OC): 10.8 mL cm-3; 2-TC parameter estimate k2 (NHP #1, OC): 0.07 min⁻¹; 2-TC parameter estimate k3 (NHP #1, OC): 0.016 min⁻¹; 2-TC parameter estimate k4 (NHP #1, OC): 0.024 min⁻¹; 2-TC parameter estimate K1 (NHP #1, PFC): 0.57 mL min-1 cm-3; 2-TC parameter estimate VT (NHP #1, PFC): 11.0 mL cm-3; 2-TC parameter estimate k2 (NHP #1, PFC): 0.09 min⁻¹; 2-TC parameter estimate k3 (NHP #1, PFC): 0.028 min⁻¹; 2-TC parameter estimate k4 (NHP #1, PFC): 0.037 min⁻¹; 2-TC parameter estimate K1 (NHP #1, PUT): 0.71 mL min-1 cm-3; 2-TC parameter estimate VT (NHP #1, PUT): 14.1 mL cm-3; 2-TC parameter estimate k2 (NHP #1, PUT): 0.09 min⁻¹; 2-TC parameter estimate k3 (NHP #1, PUT): 0.025 min⁻¹; 2-TC parameter estimate k4 (NHP #1, PUT): 0.029 min⁻¹; 2-TC parameter estimate K1 (NHP #1, THA): 0.59 mL min-1 cm-3; 2-TC parameter estimate VT (NHP #1, THA): 15.0 mL cm-3; 2-TC parameter estimate k2 (NHP #1, THA): 0.06 min⁻¹; 2-TC parameter estimate k3 (NHP #1, THA): 0.008 min⁻¹; 2-TC parameter estimate k4 (NHP #1, THA): 0.016 min⁻¹; 2-TC parameter estimate K1 (NHP #1, WB): 0.51 mL min-1 cm-3; 2-TC parameter estimate VT (NHP #1, WB): 10.9 mL cm-3; 2-TC parameter estimate k2 (NHP #1, WB): 0.09 min⁻¹; 2-TC parameter estimate k3 (NHP #1, WB): 0.025 min⁻¹; 2-TC parameter estimate k4 (NHP #1, WB): 0.031 min⁻¹; 2-TC parameter estimate K1 (NHP #3, CAU): 0.65 mL min-1 cm-3; 2-TC parameter estimate VT (NHP #3, CAU): 19.2 mL cm-3; 2-TC parameter estimate k2 (NHP #3, CAU): 0.04 min⁻¹; 2-TC parameter estimate k3 (NHP #3, CAU): 0.006 min⁻¹; 2-TC parameter estimate k4 (NHP #3, CAU): 0.029 min⁻¹; 2-TC parameter estimate K1 (NHP #3, CER): 0.44 mL min-1 cm-3; 2-TC parameter estimate VT (NHP #3, CER): 13.9 mL cm-3; 2-TC parameter estimate k2 (NHP #3, CER): 0.04 min⁻¹; 2-TC parameter estimate k3 (NHP #3, CER): 0.005 min⁻¹; 2-TC parameter estimate k4 (NHP #3, CER): 0.016 min⁻¹; 2-TC parameter estimate K1 (NHP #3, OC): 0.38 mL min-1 cm-3; 2-TC parameter estimate VT (NHP #3, OC): 11.2 mL cm-3; 2-TC parameter estimate k2 (NHP #3, OC): 0.04 min⁻¹; 2-TC parameter estimate k3 (NHP #3, OC): 0.003 min⁻¹; 2-TC parameter estimate k4 (NHP #3, OC): 0.012 min⁻¹; 2-TC parameter estimate K1 (NHP #3, PFC): 0.49 mL min-1 cm-3; 2-TC parameter estimate VT (NHP #3, PFC): 13.5 mL cm-3; 2-TC parameter estimate k2 (NHP #3, PFC): 0.05 min⁻¹; 2-TC parameter estimate k3 (NHP #3, PFC): 0.006 min⁻¹; 2-TC parameter estimate k4 (NHP #3, PFC): 0.017 min⁻¹; 2-TC parameter estimate K1 (NHP #3, PUT): 0.70 mL min-1 cm-3; 2-TC parameter estimate VT (NHP #3, PUT): 16.7 mL cm-3; 2-TC parameter estimate k2 (NHP #3, PUT): 0.05 min⁻¹; 2-TC parameter estimate k3 (NHP #3, PUT): 0.007 min⁻¹; 2-TC parameter estimate k4 (NHP #3, PUT): 0.029 min⁻¹; 2-TC parameter estimate K1 (NHP #3, THA): 0.58 mL min-1 cm-3; 2-TC parameter estimate VT (NHP #3, THA): 18.5 mL cm-3; 2-TC parameter estimate k2 (NHP #3, THA): 0.04 min⁻¹; 2-TC parameter estimate k3 (NHP #3, THA): 0.007 min⁻¹; 2-TC parameter estimate k4 (NHP #3, THA): 0.023 min⁻¹; 2-TC parameter estimate K1 (NHP #3, WB): 0.48 mL min-1 cm-3; 2-TC parameter estimate VT (NHP #3, WB): 12.6 mL cm-3; 2-TC parameter estimate k2 (NHP #3, WB): 0.05 min⁻¹; 2-TC parameter estimate k3 (NHP #3, WB): 0.010 min⁻¹; 2-TC parameter estimate k4 (NHP #3, WB): 0.029 min⁻¹; 2-TC parameter estimate K1 (NHP #4, CAU): 0.50 mL min-1 cm-3; 2-TC parameter estimate VT (NHP #4, CAU): 19.9 mL cm-3; 2-TC parameter estimate k2 (NHP #4, CAU): 0.05 min⁻¹; 2-TC parameter estimate k3 (NHP #4, CAU): 1.087 min⁻¹; 2-TC parameter estimate k4 (NHP #4, CAU): 1.229 min⁻¹; 2-TC parameter estimate K1 (NHP #4, CER): 0.32 mL min-1 cm-3
